Experimental data reported in BindingDB's records for doi:10.1016/j.bmcl.2007.11.060 (Amgen, 2008).

Assay: Antagonist activity at CXCR3 assessed as ITAC-mediated migration of human PBMC in presence of 100% human plasma

With CCS(=O)(=O)CCN(C(=O)Cc1ccc(F)c(C(F)(F)F)c1)[C@H](C)c1nc2ccccc2n1-c1ccc(C#N)cc1 [(R)-N-(1-(1-(4-cyanophenyl)-1H-benzo[d]imidazol-2-yl)ethyl)-N-(2-(ethylsulfonyl)ethyl)-2-(4-fluoro-3-(trifluoromethyl)phenyl)acetamide] the IC50 was 521 nM.
Work on CCS(=O)(=O)CCN(C(=O)Cc1ccc(F)c(C(F)(F)F)c1)[C@H](C)c1nc2ncccc2cc1-c1ccc(C#N)cc1 [(R)-N-(1-(3-(4-cyanophenyl)-1,8-naphthyridin-2-yl)ethyl)-N-(2-(ethylsulfonyl)ethyl)-2-(4-fluoro-3-(trifluoromethyl)phenyl)acetamide] yielded an IC50 of 48 nM.
In the case of CCS(=O)(=O)CCN(C(=O)Cc1ccc(F)c(C(F)(F)F)c1)[C@H](C)c1nc2c(c(=O)n1-c1ccc(C#N)cc1)CCCN2C [(R)-N-(1-(3-(4-cyanophenyl)-8-methyl-4-oxo-3,4,5,6,7,8-hexahydropyrido[2,3-d]pyrimidin-2-yl)ethyl)-N-(2-(ethylsulfonyl)ethyl)-2-(4-fluoro-3-(trifluoromethyl)phenyl)acetamide], the IC50 is reported as 88 nM.
In the case of CCS(=O)(=O)CCN(C(=O)Cc1ccc(F)c(C(F)(F)F)c1)[C@H](C)c1nc2ccccn2c1-c1ccc(C#N)cc1 [(R)-N-(1-(3-(4-cyanophenyl)H-imidazo[1,2-a]pyridin-2-yl)ethyl)-N-(2-(ethylsulfonyl)ethyl)-2-(4-fluoro-3-(trifluoromethyl)phenyl)acetamide], the IC50 is reported as 72 nM.
Work on CCS(=O)(=O)CCN(C(=O)Cc1ccc(F)c(C(F)(F)F)c1)[C@H](C)c1nc2ccccc2cc1-c1ccc(C#N)cc1 [(R)-N-(1-(3-(4-cyanophenyl)quinolin-2-yl)ethyl)-N-(2-(ethylsulfonyl)ethyl)-2-(4-fluoro-3-(trifluoromethyl)phenyl)acetamide] yielded an IC50 of 72 nM.
